biological target: T1, Human Polymorphonuclear Leukocyte Elastase (Homo sapiens, UniProt P08246); test: Inhibition of human polymorphonuclear leukocyte elastase via hydrolysis of Boc-AAPAN or Boc-AAPVN; type: biochemical; details: pH 7.5; second order rate constant for inactivation; Formula A, M n-propyl, R2 4-methyl (TABLE 1); read-out: kobs /[I]
T1 construct: Crude extract of human polymorphonuclear leukocytes (PMN) containing elastase activity; from tissue; host or cells: human polymorphonuclear leukocytes (crude extract)
T1 sequence (P08246 30-267): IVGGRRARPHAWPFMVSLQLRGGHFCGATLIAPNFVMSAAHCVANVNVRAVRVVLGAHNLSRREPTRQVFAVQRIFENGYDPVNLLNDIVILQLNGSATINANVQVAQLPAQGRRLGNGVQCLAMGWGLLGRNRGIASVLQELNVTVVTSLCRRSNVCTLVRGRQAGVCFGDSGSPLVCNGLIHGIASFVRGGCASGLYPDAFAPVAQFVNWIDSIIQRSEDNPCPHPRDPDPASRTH
Method: Enzyme Assays for the Inhibition of Human Polymorphonuclear Leukocyte
Elastase Via Hydrolysis of
N-t-Boc-alanyl-alanyl-prolylalanine-p-nitroanilide (Boc-AAPAN) or
N-t-Boc-alanyl-prolylvaline-p-nitroanilide (Boc-AAPVN) Reagent:
0.05M TES (N-tris[hydroxymethyl]methyl-2-amino-ethanesulfonic acid) Buffer, pH 7.5.
0.2 mM Boc-AAPAN or Boc-AAPVN.
To prepare substrate, the solid was first dissolved in 10.0 ml DMSO. Buffer at pH 7.5 was then added to a final volume of 100 ml.
Crude extract of human polymorphonuclear leukocytes (PMN) containing elastase activity.
Inhibitors (azetidinones) to be tested dissolved in DMSO just before use.
To 1.0 ml of 0.2 mM Boc-AAPAN in a cuvette, 0.01-0.1 ml of DMSO with or without inhibitor was added. After mixing, a measurement was taken at 410 mμ to detect any spontaneous hydrolysis due to presence of test compound. 0.05 Milliliters of PMN extract was then added and the ΔOD/min at 410 mμ was measured and recorded. Beckman model 35 spectrophotometer was used.
Results in Table I were reported as ID50, effective dosage in micrograms per milliliter (μg/ml) for 50% inhibition of the enzyme activity 2 minutes after zero time.
Results were also expressed as Ki, the micromolar concentration of the inhibitor (μM) giving 50% of the control enzyme activity; or as ^k obs/I which is the second order rate constant in per mole per second for inactivation of the enzyme.
The elastase activity in the crude PMN extract may vary from one preparation to another. A control of each new batch is run, and the volume added in the assay procedure is adjusted according to activity.

| SMILES | kinact/KI [M⁻¹ s⁻¹] |
| --- | --- |
| CCC[C@@H](NC(=O)N1C(=O)C(CC)(CC)[C@@H]1OCC(=O)N(CC)CCN(CCOCC)C(C)C)c1ccc(C)cc1 | 195000 |
| CCC[C@@H](NC(=O)N1C(=O)C(CC)(CC)[C@@H]1OCC(=O)N1CCOCC1)c1ccc(C)cc1 | 400000 |
| CCC[C@@H](NC(=O)N1C(=O)C(CC)(CC)[C@@H]1OCC(=O)N(C)CCN1C(C)CCCC1C)c1ccc(C)cc1 (stereo partly drawn) [2-(S)-[2-[[2-(2,6-dimethylpiperidin-1-yl)ethyl]-methylamino]-2-oxoethoxy]-3,3-diethyl-N-[1-(R)-(4-methylphenyl)butyl] -4-oxo-1-azetidinecarboxamide] | 80000 |
| CCC[C@@H](NC(=O)N1C(=O)C(CC)(CC)[C@@H]1OCC(=O)N(C)CCN(CCOCC)C(C)C)c1ccc(C)cc1 [2-(S)-[2-[[2-((2-Ethoxyethyl)-isopropylamino)ethyl]methylamino]-2-oxoethoxy]-3,3-diethyl-N-[1-(R)-(4-methylphenyl)butyl]-4-oxo-1-azetidinecarboxamide] | 140000 |
| CCC[C@@H](NC(=O)N1C(=O)C(CC)(CC)[C@@H]1OCC(=O)N(CCC)CCN(CCOCC)C(C)C)c1ccc(C)cc1 [2-(S)-[2-[[2-((2-Ethoxyethyl)-isopropylamino)ethyl]propylamino]-2-oxoethoxy]-3,3-diethyl-N-[1-(R)-(4-methylphenyl)butyl]-4-oxo-1-azetidinecarboxamide] | 185000 |
| CCC[C@@H](NC(=O)N1C(=O)C(CC)(CC)[C@@H]1OCC(=O)N(CCN(CC)CCOC)C(C)C)c1ccc(C)cc1 [2-(S)-[2-[[2-((2-Methoxyethyl)-ethylamino)ethyl]-isopropylamino]-2-oxoethoxy]-3,3-diethyl-N-[1-(R)-(4-methylphenyl)butyl]-4-oxo-1-azetidinecarboxamide] | 250000 |
| CCC[C@@H](NC(=O)N1C(=O)C(CC)(CC)[C@@H]1OCC(=O)N(CC)CCN(CC)CCOC)c1ccc(C)cc1 [2-(S)-[2-[[2-((2-Methoxyethyl)-ethylamino)ethyl]ethylamino]-2-oxoethoxy]-3,3-diethyl-N-[1-(R)-(4-methylphenyl)butyl]-4-oxo-1-azetidinecarboxamide] | 185000 |
| CCC[C@@H](NC(=O)N1C(=O)C(CC)(CC)[C@@H]1OCC(=O)N(C)CCN(CC)CCOC)c1ccc(C)cc1 [2-(S)-[2-[[2-((2-Methoxyethyl)-ethylamino)ethyl]methylamino]-2-oxoethoxy]-3,3-diethyl-N-[1-(R)-(4-methylphenyl)butyl]-4-oxo-1-azetidinecarboxamide] | 110000 |
| CCC[C@@H](NC(=O)N1C(=O)C(CC)(CC)[C@@H]1OCC(=O)N(C)CCN(CCOC)CCOC)c1ccc(C)cc1 [2-(S)-[2-[[2-(Di-(2-methoxyethyl)amino)ethyl]methylamino]-2-oxoethoxy]-3,3-diethyl-N-[1-(R)-(4-methylphenyl)butyl]-4-oxo-1-azetidinecarboxamide] | 165000 |
| CCC[C@@H](NC(=O)N1C(=O)C(CC)(CC)[C@@H]1OCC(=O)N(CC)CCN1CCOCC1)c1ccc(C)cc1 [2-(S)-[2-[[2-(Morpholin-1-yl)ethyl]ethylamino]-2oxoethoxy]-3,3-diethyl-N-[1-(R)-(4-methylphenyl)butyl]-4-oxo-1-azetidinecarboxamide] | 245000 |
| CCC[C@@H](NC(=O)N1C(=O)C(CC)(CC)[C@@H]1OCC(=O)N(CC)CCN(CC)CC)c1ccc(C)cc1 [Y=N(Et)CH2 CH2; R5=H; R7=Et; R8=Et, 2-(S)-[2-[[2-(Diethylamino)ethyl]ethylamino]-2-oxoethoxy]-3,3-di ethyl-N-[1-(R)-(4-methylphenyl)butyl]-4-oxo-1-azetidinecarboxamide] | 177000 |
| CCC[C@@H](NC(=O)N1C(=O)C(CC)(CC)[C@@H]1OCC(=O)N(CC)CCN(C(C)C)C(C)C)c1ccc(C)cc1 [Y=N(Et)CH2 CH2; R5=H; R7=iPr; R8=iPr, 2-(S)-[2-[[2-(Diisopropylamino)ethyl]ethylamino]-2-oxoethoxy]-3,3-diethyl-N-[1-(R)-(4-methylphenyl)butyl]-4-oxo-1-azetidinecarboxamide] | 189000 |
| CCC[C@@H](NC(=O)N1C(=O)C(CC)(CC)[C@@H]1O[C@@H](C)C(=O)N(CC)CCN(C)C)c1ccc(C)cc1 [Y=N(Et)CH2 CH2; R5=Me; R7=Me; R8=Me, 2-(S)-[2-[[2-(Dimethylamino)ethyl]ethylamino]-2-oxo-(1-(S)-methyl)ethoxy]-3,3-diethyl-N-[1-(R)-(4-methylphenyl)butyl]-4-oxo-1-azetidinecarboxamide] | 1.77e+06 |
| CCC[C@@H](NC(=O)N1C(=O)C(CC)(CC)[C@@H]1OCC(=O)N(C)CCCN(C)C)c1ccc(C)cc1 [Y=N(Me)CH2 CH2 CH2; R5=H; R7=Me; R8=Me, 2-(S)-[2-[[3-(Dimethylamino)propyl]methylamino]-2-oxoethoxy]-3,3-diethyl-N-[1-(R)-(4-methylphenyl)butyl]-4-oxo-1-azetidinecarboxamide] | 115000 |
| CCC[C@@H](NC(=O)N1C(=O)C(CC)(CC)[C@@H]1OCC(=O)N(C)CCN(CC)CC)c1ccc(C)cc1 [Y=N(Me)CH2 CH2; R5=H; R7=Et; R8=Et, 2-(S)-[2-[[2-(Diethylamino)ethyl]methylamino]-2oxoethoxy]-3,3-diethyl-N-[1-(R)-(4-methylphenyl)butyl]-4-oxo-1-azetidinecarboxamide] | 150000 |
| CCC[C@@H](NC(=O)N1C(=O)C(CC)(CC)[C@@H]1OCC(=O)N(C)CCN(C)C)c1ccc(C)cc1 [Y=N(Me)CH2 CH2; R5=H; R7=Me; R8=Me, 2-(S)-[2-[[2-(Dimethylamino)ethyl]methylamino]-2-oxoethoxy]-3,3-diethyl-N-[1-(R)-(4-methylphenyl)butyl]-4-oxo-1-azetidinecarboxamide] | 114000 |

same assay, conditions: pH 7.5; second order rate constant; Formula A, M n-propyl, R2 3,4-methylenedioxy; read-out: kobs /[I]

| SMILES | kinact/KI [M⁻¹ s⁻¹] |
| --- | --- |
| CCC[C@@H](NC(=O)N1C(=O)C(CC)(CC)[C@@H]1OCC(=O)N(CC)CCN(C)CCOC)c1ccc2c(c1)OCO2 [2-(S)-[2-[[2-(2-Methoxyethyl)methylamino)ethy]ethylamino]-2-oxoethoxy]-3,3-diethyl-N-[1-(R)-(3,4-methylenedioxyphenyl)butyl]-4-oxo-1-azetidine carboxamide] | 450000 |
| CCC[C@@H](NC(=O)N1C(=O)C(CC)(CC)[C@@H]1OCC(=O)N(CC)CCN(C)C)c1ccc2c(c1)OCO2 [2-(S)-[2-[[2-(Dimethylamino)ethy]-ethylamino]-2-oxoethoxy]-3,3-diethyl-N-[1-(R)-(3,4-methylenedioxyphenyl)butyl]-4-oxo-1-azetidinecarboxamide] | 425000 |
| CCC[C@@H](NC(=O)N1C(=O)C(CC)(CC)[C@@H]1OCC(=O)N(CCN(C)C)C(C)C)c1ccc2c(c1)OCO2 [2-(S)-[2-[[2-(Dimethylamino)ethyl]-isopropylamino]-2-oxoethoxyl]-3,-3-diethyl-N-[1-(R)-(3,4-methylenedioxyphenyl)-butyl]-4-oxo-1-azetidinecarboxamide] | 500000 |

same assay, conditions: pH 7.5; second order rate constant; Formula A, M n-propyl, R4 piperazine amide with substituent Z; read-out: kobs /[I]

| SMILES | kinact/KI [M⁻¹ s⁻¹] |
| --- | --- |
| CCC[C@@H](NC(=O)N1C(=O)C(CC)(CC)[C@@H]1OCC(=O)N1CCN(C2CC2)CC1)c1ccc2c(c1)OCO2 [2-(S)-[2-[2-(4-Cyclopropyl)piperazin-1-yl]-2-oxoethoxy]-3,3-diethyl-N-[1-(R)-(3,4-methylenedioxyphenyl)-butyl]-4-oxo-1-azetidinecarboxamide] | 560000 |
| CCC[C@@H](NC(=O)N1C(=O)C(CC)(CC)[C@@H]1OCC(=O)N1CCN(C)CC1)c1ccc2c(c1)OCO2 [R2=3,4-methylenedioxy-; R5=H; Z=--Me, 2-(S)-[2-[2-(4-Methyl)piperazin-1-yl]-2-oxoethoxy]-3,-3-diethyl-N-[1-(R)-(3,4-methylenedioxyphenyl)-butyl]-4-oxo-1-azetidinecarboxamide] | 530000 |
| CCC[C@@H](NC(=O)N1C(=O)C(CC)(CC)[C@@H]1OCC(=O)N1CCNCC1)c1ccc2c(c1)OCO2 [R2=3,4-methylenedioxy-; R5=H; Z=H] | 515000 |
| CCC[C@@H](NC(=O)N1C(=O)C(CC)(CC)[C@@H]1OCC(=O)N1CCN(CCO)CC1)c1ccc(C)cc1 [R2=4-Me; R5=H; Z=CH2 CH2 OH, 2-(S)-[2-[2-(4-(2-Hydroxy)ethyl)piperazin-1-yl]-2-oxoethoxy]-3,-3-diethyl-N[1-(R)-(4-methylphenyl)-butyl]-4-oxo-1-azetidinecarboxamide] | 300000 |
| CCC[C@@H](NC(=O)N1C(=O)C(CC)(CC)[C@@H]1OCC(=O)N1CCNCC1)c1ccc(C)cc1 [R2=4-Me; R5=H; Z=H] | 250000 |
| CCC[C@@H](NC(=O)N1C(=O)C(CC)(CC)[C@@H]1OCC(=O)N1CCN(C2CC2)CC1)c1ccc(C)cc1 [R2=4-Me; R5=H; Z=cyclopropyl, 2-(S)-[2-[2-(4-Cyclopropyl)piperazin-1-yl]-2-oxoethoxy]-3,-3-diethyl-N-[1-(R)-(4-methylphenyl)-butyl]-4-oxo-1-azetidinecarboxamide] | 225000 |
